Laboratory results: patent publication US20240140931A1, “TRICYCLIC COMPOUNDS AND USES THEREOF” (HUTCHMED LIMITED, priority 2021, published 2024)

Key:
[1] = test system: pERK1/2 (Thr202/Tyr204) in Miapaca2 cells; experiment: Assay of intracellular pERK1/2 (Thr202/Tyr204) phosphorylation; type: cell-based; settings: pERK1/2 (Thr202/Tyr204) HTRF
Method: Example 3 Assay of Intracellular pERK1/2 (Thr202/Tyr204) Phosphorylation
1. Reagents and Materials • pERK1/2 (Thr202/Tyr204) HTRF kit: Cisbio, Cat #64ERKPEH; • Cell line: Miapaca2, ATCC, CRL-1420; • OptiPlate™-384-well plate: PerkinElmer, Cat #6007299; • 96-well plate: Corning, Cat #353072; • Instrument: EnVision2104, PerkinElmer.
2. Preparation of Reaction Solutions • The test compound was dissolved in DMSO and diluted with DMSO to 600.0 μM, and the compound was further 3-fold diluted with DMSO to: 600.0, 200.0, 66.7, 22.2, 7.4, 2.5, 0.82 and 0.27 μM. Then 10 μL of the compound at different dilution concentrations was added to 190 μL of a DMEM medium to prepare a 10× test compound, wherein DMSO was at the concentration of 5% (DMSO was at the final concentration of 0.5%). • 1× cell lysis buffer: 4× cell lysis stock solution (provided by the kit) was diluted 4-fold with deionized water, and then 1% 100× blocking stock solution (provided by the kit) was added thereto. • pERK1/2 detection solution (prepared just before use): the pERK1/2 d2 antibody (provided by the kit) and pERK1/2 Cryptate antibody (provided by the kit) were diluted with the detection solution (provided by the kit) at a ratio of 1:1:38.
3. Experimental Steps • Miapaca2 cells were inoculated into a 96-well plate at a density of 10000 cells/well at 90 μL/well and cultured in a cell incubator at 5% CO2 and 37° C. overnight. • 10 μL of 10× test compound was added to the 90 μL cell culture 96-well plate; to the cell positive control well was added 10 μL of 5% DMSO culture solution; and the plate was cultured in a cell incubator at 5% CO2 and 37° C. for 2 hours. • The medium in the 96-well plate was removed; 50 μL of 1× cell lysis buffer was added to each well; the plate was placed in a microplate shaker; and lysis under shaking was carried out at 900 rpm at room temperature for 1 hour. • 16 μL of the lysis buffer in the 96-well plate was taken and transferred to a 384-well plate, and centrifugation was carried out at 1000 rpm for 30 seconds; then 4 μL of pERK1/2 detection solution was added to each well and centrifugation was carried out at 1000 rpm for 30 seconds; and the 384-well plate was sealed with a sealing membrane and incubated at 25° C. on a low-speed shaker (100 rpm) in the dark for 2 hours. • The fluorescence value (relative fluorescence units, RFU) of each well was detected on EnVision2104 (emission 1: 665 nm, emission 2: 615 nm).
wherein • the fluorescence ratio of compound well refers to the fluorescence ratio of the well containing the test compounds; • the fluorescence ratio of negative control well refers to the fluorescence ratio of the background containing the cell lysis buffer and no Miapaca2 cells; • the fluorescence ratio of positive control well refers to the fluorescence ratio of the well containing 0.5% DMSO and Miapaca2 cells.
(§1) IC50 values were calculated following formula 205: y=A+((B−A)/(1+((C/X)^D))), by using the XL-Fit 5.0 software.

[2] = molecular target: Human full-length SHP2 recombinant protein (Homo sapiens (Human), UniProt Q06124); experiment: Assay of full-length SHP2 phosphatase activity; type: biochemical; settings: DiFMUP substrate, with activating peptide
Method: Example 2 Assay of Full-Length SHP2 Phosphatase Activity
1. Reagents and Materials • Human full-length SHP2 recombinant protein: BPS Bioscience, Cat #79018; • SHP2 substrate DiFMUP (1 mM): BPS Bioscience, Cat #79769; • SHP2 activating peptide (100 μM): BPS Bioscience, Cat #79319-2; • DTT: Merck, Cat #DTT-RO; • 384-well plate: Corning, Cat #3575; • 96-well plate: Thermo Fisher Scientific, Cat #249952; • Instrument: EnVision 2104, PerkinElmer.
2. Preparation of Reaction Solutions
The test compound was dissolved in DMSO and diluted with DMSO to 100.0 μM, and the compound was further 3-fold diluted with DMSO to: 100.00, 33.33, 11.11, 3.70, 1.23, 0.41, 0.14 and 0.05 μM.
3. Experimental Steps • To the corresponding wells of the 384-well plate was added 2.5 μL of 4× test compound or 2.5 μL of 4% DMSO solution, and centrifugation was carried out at 1000 rpm for 30 seconds. • To the test compound well and positive control well was added 2.5 μL of 4× mixed solution of SHP2 enzyme/activating peptide while to the negative control well was added 2.5 μL of 1× enzymatic reaction buffer; centrifugation was carried out at 1000 rpm for 30 seconds and incubation was carried out at room temperature for 30 minutes. • To each well was added 5 μL of 2×DiFMUP substrate to initiate the enzymatic reaction, then the plate was transiently oscillated and centrifuged at 1000 rpm for 30 seconds, and the 384-well plate was sealed with a sealing membrane and incubated at 25° C. on a low-speed shaker (100 rpm) in the dark for 60 minutes. • The fluorescence value (relative fluorescence units, RFU) of each well was detected on EnVision2104 (excitation: 355 nm, emission: 460 nm).
wherein • the RFU of compound well refers to the fluorescence reading at 460 nm of the well containing the test compounds; • the RFU of negative control well refers to the fluorescence reading at 460 nm of the background well containing 1% DMSO and the enzymatic reaction buffer; • the RFU of positive control well refers to the fluorescence reading at 460 nm of the well containing 1% DMSO and the mixed solution of SHP2 enzyme/activating peptide.
as §1

SMILES | IC50 ([1]; Homo sapiens, MIA PaCa-2, 2 h) [nM] | IC50 [2] [nM] | IC50 ([1]; 2 hours) [nM]
C#Cc1ccc2c(c1)CC1(CCN(c3nc(N)c(-c4cn(C)c5ncccc45)c4nccn34)CC1)[C@@H]2N [Compound 25] | 151 | 12 | –
C#Cc1ccc2c(c1)CC1(CCN(c3cc(=O)n(-c4cccc(Cl)c4)c(C)n3)CC1)[C@@H]2N [Compound 26] | > 3000 | 158 | –
C#Cc1ccc2c(c1)[C@@H](N)C1(CCN(c3cc(=O)n(-c4cccc(OCC)c4Cl)c(C)n3)CC1)C2 [Compound 62] | 105 | 5 | –
C#Cc1ccc2c(c1)[C@@H](N)C1(CCN(c3ncc(Sc4ccnc(N)c4Cl)c4nccn34)CC1)C2 [Compound 8] | 8 | 3 | –
C#Cc1ccc2c(c1)[C@@H](N)C1(CCN(c3cc(=O)n(-c4cc(OC)ccc4Cl)c(C)n3)CC1)C2 [Compound 44] | 415 | 60 | –
C#Cc1ccc2c(c1)[C@@H](N)C1(CCN(c3nc(C)n(-c4ccc(F)cc4Cl)c(=O)c3C)CC1)C2 [Compound 54] | – | 3 | 36
C#Cc1ccc2c(c1)[C@@H](N)C1(CCN(c3cc(=O)n(-c4cccc(Cl)c4)c(C)n3)CC1)C2 [Compound 17] | 203 | 18 | –
C#Cc1ccc2c(c1)[C@@H](N)C1(CCN(c3cc(=O)n(-c4ccnc(Cl)c4)c(C)n3)CC1)C2 [Compound 60] | > 1000 | 13 | –
COCC#Cc1ccc2c(c1)[C@@H](N)C1(CCN(c3ncc(Sc4ccnc(N)n4)nc3CO)CC1)C2 [Compound 87, (S)-(3-(1-amino-6-(3-methoxyprop-1-yn-1-yl)-1,3-dihydrospiro[indene-2,4′-piperidin]-1′-yl)-6-((2-aminopyrimidin-4-yl)thio)pyrazin-2-yl)methanol] | 2 | 1 | –
C#Cc1ccc2c(c1)[C@@H](N)C1(CCN(c3cc(=O)n(-c4ccccc4C(F)(F)F)c(C)n3)CC1)C2 [Compound 107] | > 1000 | 739 | –
C#Cc1ccc2c(c1)CC1(CCN(c3ncc(Sc4ccnc(NC5CCC5)c4Cl)c4nccn34)CC1)[C@@H]2N [Compound 10] | 220 | 35 | –
CNCC#Cc1ccc2c(c1)[C@@H](N)C1(CCN(c3cc(=O)n(-c4cccc(Cl)c4Cl)c(C)n3)CC1)C2 [Compound 67] | 39 | 1 | –
C#Cc1ccc2c(c1)CC1(CCN(c3ncc(Sc4ccnc(NCCO)c4Cl)c4nccn34)CC1)[C@@H]2N [Compound 7] | 28 | 10 | –
C#Cc1ccc2c(c1)[C@@H](N)C1(CCN(c3cc(=O)n(-c4ccc(F)c(OC)c4)c(C)n3)CC1)C2 [Compound 29] | 489 | 25 | –
COCC#Cc1ccc2c(c1)[C@@H](N)C1(CCN(c3cnc(Sc4ccnc(N)c4Cl)c(N)n3)CC1)C2 [Compound 86] | 6 | 2 | –
Cc1nc(N2CCC3(CC2)Cc2ccc(C#CCOC(C)(C)C)cc2[C@H]3N)cc(=O)n1-c1cccc(Cl)c1Cl [Compound 31] | 37 | 5 | –
C#Cc1ccc2c(c1)[C@@H](N)C1(CCN(c3cnc(Sc4ccnc(N)c4Cl)c(N)n3)CC1)C2 [Compound 95] | 2 | 3 | –
C#Cc1ccc2c(c1)[C@@H](N)C1(CCN(c3cc(=O)n(-c4cccc(C(F)(F)F)c4Cl)c(C)n3)CC1)C2 [Compound 106] | – | 9 | 84
C#Cc1ccc2c(c1)[C@@H](N)C1(CCN(c3cc(=O)n(-c4cc(F)cc(F)c4)c(C)n3)CC1)C2 [Compound 55] | 388 | 26 | –
C#Cc1ccc2c(c1)[C@@H](N)C1(CCN(c3cc(=O)n(-c4ccc(F)c(Cl)c4Cl)c(C)n3)CC1)C2 [Compound 69] | – | 5 | 66
C#Cc1ccc2c(c1)[C@@H](N)C1(CCN(c3cc(=O)n(-c4cc(Cl)ccc4Cl)c(C)n3)CC1)C2 [Compound 73] | > 1000 | 253 | –

Results, then the compound that gave them:

IC50 ([1]; Homo sapiens, MIA PaCa-2, 2 h) [nM] | IC50 [2] [nM] | IC50 ([1]; 2 hours) [nM] | SMILES
– | 253 | 672 | C#Cc1ccc2c(c1)[C@@H](N)C1(CCN(c3cc(=O)n(-c4ccc(C#N)c(OC)c4Cl)c(C)n3)CC1)C2 (atropisomer, axis not shown) [Compound 190]
> 1000 | 42 | – | COCC#Cc1ccc2c(c1)[C@@H](N)C1(CCN(c3cc(=O)n(-c4ccc(C#N)c(O)c4F)c(C)n3)CC1)C2 [Compound 186]
– | 44 | 447 | CNC(=O)C#Cc1ccc2c(c1)[C@@H](N)C1(CCN(c3cc(=O)n(-c4cccc(OC)c4Cl)c(C)n3)CC1)C2 (atropisomer, axis not shown) [Compound 181]
– | 3 | 40 | C#Cc1ccc2c(c1)[C@@H](N)C1(CCN(c3cc(=O)n(-c4cccc(C(F)(F)F)c4Cl)c(C)n3)CC1)C2 (atropisomer, axis not shown) [Compound 118]
20 | 9 | – | CCNC(=O)C#Cc1ccc2c(c1)[C@@H](N)C1(CCN(c3nc(N)c(Sc4ccnc(N)c4Cl)nc3Cl)CC1)C2 [Compound 224]
– | 42 | 154 | COCC#Cc1ccc2c(c1)[C@@H](N)C1(CCN(c3cc(=O)n(-c4ccc(F)c(OC)c4Cl)c(C)n3)CC1)C2 (atropisomer, axis not shown) [Compound 164]
124 | 25 | – | C#Cc1cc(F)c2c(c1)[C@@H](N)C1(CCN(c3nc(C)n(-c4cccc(Cl)c4Cl)c(=O)c3F)CC1)C2 [Compound 167]
– | 2 | 14 | C#Cc1ccc2c(c1)[C@@H](N)C1(CCN(c3cc(=O)n(-c4ccc(F)c(F)c4Cl)c(C)n3)CC1)C2 (atropisomer, axis not shown) [Compound 113]
153 | 2.8 | – | CC#Cc1ccc2c(c1)[C@@H](N)C1(CCN(c3cnc(Sc4ccnc(N)c4Cl)nn3)CC1)C2 [Compound 234]
– | 4 | 100 | CC#Cc1ccc2c(c1)[C@@H](N)C1(CCN(c3cc(=O)n(-c4ccc(F)c(F)c4Cl)c(C)n3)CC1)C2 [Compound 214]
23 | 4 | – | CNC(=O)C#Cc1cc2c(cc1F)CC1(CCN(c3nc(N)c(Sc4ccnc(N)c4Cl)nc3Cl)CC1)[C@@H]2N [Compound 223]
125 | 6 | – | COCC#Cc1ccc2c(c1)[C@@H](N)C1(CCN(c3nc(C)n(-c4cccc(Cl)c4Cl)c(=O)c3F)CC1)C2 [Compound 169]
